Data published in patent US7745450B2, “Pyrazolo[4,3-d]pyrimidines, processes for their preparation and methods for therapy” (Institute of Experimental Botany, priority 2002, dated 2010).
Where two headings read alike, the source gives them in different places. Blank lines part the entries; values can stand above or below the compound they belong to.

How the values were obtained:
[1] = system: human melanoma cell line Arn8 (p53-responsive reporter); test: p53-dependent transcriptional activity, β-galactosidase reporter; assay type: cell-based; details: concentration inducing maximum of β-galactosidase activity
Procedure: Cell lines established from the human cervical carcinoma (HeLa), human breast carcinoma (MCF-7, BT549 and BR474), human osteosarcoma (HOS), human colon carcinoma (HT29), murine fibroblasts (T221acZ) and the human melanoma (Arn8) cell lines were cultured in Dubecco's Modified Eagle Medium (DMEM) supplemented with 10% fetal bovine serum. Tested compounds were added from 50 mM stock solution in dimethyl-sulphoxide (DMSO) into the culture medium at final concentration 20 μM. Control cells received an equivalent volume of DMSO.
β-galactosidase activity of human melanoma cell line […] T221acZ (both stabile transfected with a p53-responsive reporter construct pRGCΔfoslacZ) (Frebung et al., Cancer Res., 52, 1992-6976) was determined. For the determination of total β-galactosidase activity, cells were lysed by 3 freeze-thaw cycles in 0.25 M Tris pH 7.5, and lysates were assayed as described by Sambrook et al., Mol. cloning, New York, 1989.
Effect of 25 and related compounds on activation of p53 protein was also analyzed in human melanoma cell line Arn8 and murine fibroblast cell line T22LacZ expressing β-galactosidase under control of p53 responsive promoter. Induction of wt p53 in these cells treated with 20 μM 25 (6, 12 and 24 hrs) leads to activation of responsive promoter and consequently to expression of β-galactosidase. Arn8 and T221acZ cells treated with 25 were fixed and examined microscopically for β-galactosidase activity using X-gal substrate leading to about 25% blue-colored cells compared to less than 1% of blue-colored cells in DMSO-treated control cells (data not shown). The total β-galactosidase activity in Arn8 cells was also assessed using colorimetric assay.

[2] = system: CEM (human lymphoblastoid leukemia); test: In vitro cytotoxic activity, Calcein AM; assay type: cell-based; details: three days
Method in brief: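 CEM cells were seeded at 10^4/well in DMEM + 10% FBS and exposed to six concentrations from 200 to 0.2 μM, in triplicate, for 3 days at 37 °C and 5% CO2. Viable cells were then measured by Calcein AM fluorescence after 1 h loading.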

normal human lymphocytes = test: Immunosuppressive activity, 3H-thymidine incorporation in concanavalin A activated lymphocytes; assay type: cell-based; details: Lymphocyte, 72 hours, [3H]-TdR, read-out: Human lymphocytes ED50
Procedure: Human heparinized peripheral blood was obtained from healthy volunteers by cubital vein punction. The blood was diluted in PBS (1:3) and mononuclear cells were separated by centrifugation in Ficoll-Hypaque density gradient (Pharmacia, 1.077 g/ml) at 2200 rpm for 30 minutes. Following centrifugation, lymphocytes were washed in PBS and resuspended in cell culture medium (RMPI 1640, 2 mM glutamine, 100 U/ml penicillin, 100 μg/ml streptomycin, 10% fetal calf serum and sodium bicarbonate).
The cells were diluted at target density of 1.100.000 cells/ml were added by pipette (180 μl) into 96/well microtiter plates. Four-fold dilutions of the intended test concentration were added at time zero in 20 μl aliquots to the microtiter plate wells. Usually, test compound was evaluated at six 4-fold dilutions. In routine testing, the highest well concentration was 266.7 μM. All drug concentrations were examined in duplicates. All wells with exception of unstimulated controls were activated with 50 μl of concanavalin A (25 μg/ml). Incubations of cells with test compounds lasted for 72 hours at 37° C., in 5% CO2 atmosphere and 100% humidity. At the end of incubation period, the cells were assayed by using the [^3H]-TdR:
Cell cultures were incubated with 0.5 μCi (20 μl of stock solution […]) per well for 6 hours at 37° C. and 5% CO2. The automated cell harvester was used to lyse cells in water and adsorb the DNA onto glass-fiber filters in the format of microtiter plate. The DNA incorporated [^3H]-TdR was retained on the filter while unincorporated material passes through. The filters were dried at room temperature overnight, sealed into a sample bag with 10-12 ml of scintillant. The amount of [^3H]-TdR present in each filter (in cpm) was determined by scintillation counting in a Betaplate liquid scintillation counter. The effective dose of immunosuppressant (ED) was calculated using the following equation: ED=(CCPMdrug exposed well/mean CCPMcontrol wells)×100%.

MMK1 protein kinase = MMK1 protein kinase (Vicia faba, UniProt A0AAV1B7B8); test: MMK1 protein kinase activity; assay type: biochemical
Procedure: (§1) Protein extraction and purification of pant CDK by binding to p13^suc1-beads or immunopurification with an antibody specific to the cdc2a-MS protein was carried out as described previously (Bögre et al. 1997, Plant Physiol. 113, 1997, 841-852). The MMK1 protein kinase was purified with a specific antibody from Vicia faba extracts as described by Bögre et al. 1997a, Plant Cell 9, 75-83). Protein kinase activity was measures as described above in Example 20. The quantification of radioactivity incorporated into histone H1 or myelin basic protein was undertaken using phosphoimager (FIG. 2).

B16 = test: In vitro cytotoxic activity, Calcein AM; assay type: cell-based; details: three days
[3] = target: cdc2a-MS protein (plant CDK, cdc2Ms kinase) (Vicia faba, UniProt A0AAV0YZ35); test: CDK inhibitory activity on plant kinases (plant CDK); assay type: biochemical; details: histone H1 phosphorylation
Procedure: as §1

DNA synthesis = test: Inhibition of DNA synthesis in Xenopus egg extracts; assay type: biochemical; details: [α-32P]dATP incorporation after 3 h
Procedure: Metaphase-arrested Xenopus egg extracts were prepared as described previously by Blow “J. Cell Biol.” 1993; 122:993 and stored in liquid nitrogen. Demembranated Xenopus sperm nuclei were prepared as described. by Blow & Laskey “Cell” 1986; 47:577. After thawing, extracts were supplemented with 25 mM phosphocreatine, 5 μg/ml creatine phosphokinase, 250 μg/ml cycloheximide, [α-^32P]dATP (for DNA synthesis assays). Demembranated sperm nuclei were added to a final sperm concentration of 3 ng/μl DNA extract and CDK inhibitor tested was then added at different concentrations. […] DNA synthesis was assessed by releasing extract into interphase by the addition of 0.3 mM CaCl2 and measuring the total amount of [α-^32P]dATP incorporation after 3 h by TCA co-precipitation.

cdk1/cyclin B (CDC2) = cdk1/cyclin B (CDC2) (Homo sapiens, UniProt P06493); test: CDK inhibition assay, cdk1/cyclin B (CDC2) kinase, histone phosphorylation; assay type: biochemical
Method in brief: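 Human cdk1/cyclin B activity measured with 1 mg/ml histone substrate, 15 μM ATP plus [γ-32P]ATP, in HEPES pH 7.4 buffer with 10 mM MgCl2. Phosphorylation quantified by phosphorimaging; activity expressed as % of maximum, IC50 from dose-response curves by graphic analysis.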

[4] = system: Cytokinin-dependent tobacco callus Nicotiana tabacum L. cv. Wisconsins 38; test: Tobacco callus bioassay for cytotoxicity (herbicidal activity); assay type: cell-based; details: Nicotiana tabacum, 672 h
Method in brief: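 Compounds were prepared in DMSO as a 10^−3 M stock in water. Growth inhibition was scored from fresh callus weight gain after four weeks, with five replicates and the test run at least twice.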

IκB-α kinase = IκB-α kinase inhibition, in vitro kinase assay; assay type: biochemical
β-adrenergic receptors = test: Modulation of isoproterenol-induced cAMP synthesis in rat C6 glioma; assay type: cell-based; details: cAMP synthesis induced by 5 μM (−) isoproterenol, simultaneous addition, 30 min
Procedure: Mechanism of action of novel compounds is presented on FIG. 3. Rat C6 glioma (ATCC N° CCL107) was cultivated in monolayer in serum-free chemically defined medium containing Ham's F10/minimal essential medium (1:1 vol/vol), 2 mM L-glutamine, 1% (vol/vol) minimal essential medium vitamins (100×), 1% (vol/vol) minimal essential medium nonessential amino acids (100×), 100 U/ml penicillin, 100 μg/ml streptomycin and 30 nM sodium selenide. Incubation was at 37° C. in a humidified atmosphere. Assays were performed in the logarithmic growth phase at a density of 2.5×10^5 cells/cm^2. Intracellular cAMP synthesis was induced by addition of 5 μM (−) isoproterenol. After 30 min incubation at 37° C. the medium was removed and the cellular amount of cAMP determined using the cAMP-enzyme immunoassay kit of Amersham. The I50 is determined from a dose-response curve in duplicate.
The effect of seven purine-analogs was measured after simultaneous addition with isoproterenol.

[5] = read-out: 10^−5 M BAP IC50, 10^−5 M 6-benzylaminopurine, four weeks
[6] = read-out: 10^−6 M BAP IC50, 10^−6 M 6-benzylaminopurine, four weeks

cdc2a-MS protein (plant CDK, cdc2Ms kinase), sequence (A0AAV0YZ35 1-294): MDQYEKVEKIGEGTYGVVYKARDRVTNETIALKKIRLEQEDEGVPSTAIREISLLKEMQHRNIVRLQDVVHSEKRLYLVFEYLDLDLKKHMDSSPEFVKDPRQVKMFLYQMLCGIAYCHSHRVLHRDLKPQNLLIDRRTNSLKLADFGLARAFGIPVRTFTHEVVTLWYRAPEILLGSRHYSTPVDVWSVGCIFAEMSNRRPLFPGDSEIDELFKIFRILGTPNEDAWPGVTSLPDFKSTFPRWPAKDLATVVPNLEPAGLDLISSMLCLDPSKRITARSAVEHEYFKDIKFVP
MMK1 protein kinase, sequence (A0AAV1B7B8 1-394): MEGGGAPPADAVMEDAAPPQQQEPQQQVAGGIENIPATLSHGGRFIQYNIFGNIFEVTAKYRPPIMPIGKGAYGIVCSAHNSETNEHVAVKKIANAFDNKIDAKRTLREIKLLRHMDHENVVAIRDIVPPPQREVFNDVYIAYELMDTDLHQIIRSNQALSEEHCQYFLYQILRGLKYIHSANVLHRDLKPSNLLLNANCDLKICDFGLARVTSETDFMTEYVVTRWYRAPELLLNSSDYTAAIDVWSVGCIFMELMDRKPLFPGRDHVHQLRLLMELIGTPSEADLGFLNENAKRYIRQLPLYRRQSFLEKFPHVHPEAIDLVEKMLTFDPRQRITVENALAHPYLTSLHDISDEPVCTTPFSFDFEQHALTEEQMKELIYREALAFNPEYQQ
cdk1/cyclin B (CDC2), sequence (P06493 whole entry, species assumed): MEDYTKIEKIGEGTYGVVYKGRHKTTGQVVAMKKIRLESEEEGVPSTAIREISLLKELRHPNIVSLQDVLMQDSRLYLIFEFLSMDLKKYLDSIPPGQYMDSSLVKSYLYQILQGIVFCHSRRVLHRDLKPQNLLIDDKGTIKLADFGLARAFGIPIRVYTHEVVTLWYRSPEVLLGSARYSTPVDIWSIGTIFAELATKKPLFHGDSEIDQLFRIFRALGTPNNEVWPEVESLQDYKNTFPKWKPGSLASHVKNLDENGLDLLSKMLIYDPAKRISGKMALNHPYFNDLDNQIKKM
cdk1/cyclin B (CDC2), sequence (P14635 whole entry partner, species assumed): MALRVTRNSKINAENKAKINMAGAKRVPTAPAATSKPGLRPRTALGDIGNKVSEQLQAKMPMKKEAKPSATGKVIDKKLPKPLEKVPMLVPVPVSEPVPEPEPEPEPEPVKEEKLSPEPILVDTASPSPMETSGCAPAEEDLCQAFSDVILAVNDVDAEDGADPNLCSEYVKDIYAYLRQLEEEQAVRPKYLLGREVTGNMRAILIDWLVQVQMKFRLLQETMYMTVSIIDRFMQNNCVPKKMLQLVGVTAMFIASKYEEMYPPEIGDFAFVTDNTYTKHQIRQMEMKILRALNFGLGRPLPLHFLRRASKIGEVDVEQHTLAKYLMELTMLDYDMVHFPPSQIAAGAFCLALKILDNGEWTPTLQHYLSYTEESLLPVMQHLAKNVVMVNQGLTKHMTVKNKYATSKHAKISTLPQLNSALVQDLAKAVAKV

Structure (SMILES): Cc1n[nH]c2c(NCc3ccccc3)nc(N[C@@H](CO)C(C)C)nc12
Max β-Gal. Activtity Conc. [1]: 6.5 µM
GI50 ([2]; Homo sapiens, 72 h): 2.8 µM
EC50 (normal human lymphocytes): 6.5 µM
IC50 (MMK1 protein kinase): 0.4 µM
GI50 (B16; Mus musculus, B16, 72 h): 4.3 µM

Structure (SMILES): CC(C)c1n[nH]c2c(Nc3cccc(Cl)c3)nc(Cl)nc12 [Example 11, 7-(3-chloroanilino)-5-chloro-3-isopropylpyrazolo[4,3-d]pyrimidine]
melting point: 257 to 259 °C

Structure (SMILES): CC[C@H](CO)Nc1nc(NCc2ccccc2)c2[nH]nc(C)c2n1
Max β-Gal. Activtity Conc. [1]: 9.5 µM
GI50 ([2]; Homo sapiens, 72 h): 3.4 µM
EC50 (normal human lymphocytes): 9.5 µM
IC50 (MMK1 protein kinase): 1.3 µM
GI50 (B16; Mus musculus, B16, 72 h): 4.2 µM

Structure (SMILES): CC[C@H](CO)Nc1nc(Nc2cccc(Cl)c2)c2[nH]nc(C(C)C)c2n1
Max β-Gal. Activtity Conc. [1]: 12 µM
EC50 (normal human lymphocytes): 1.8 µM

Structure (SMILES): CC(C)c1n[nH]c2c(Nc3cccc(Cl)c3)nc(N[C@@H](CO)C(C)C)nc12
Max β-Gal. Activtity Conc. [1]: 7 µM
GI50 ([2]; Homo sapiens, 72 h): 1.2 µM
EC50 (normal human lymphocytes): 3.2 µM
GI50 (B16; Mus musculus, B16, 72 h): 1.7 µM

Structure (SMILES): COc1ccc(CNc2nc(NCc3ccc(OC)cc3)c3[nH]nc(C(C)C)c3n2)cc1 [Example 17, 5,7-di[(4-methoxybenzyl)amino]-3-isopropylpyrazolo[4,3-d]pyrimidine]
melting point: 60 to 85 °C

Further lines, with some results ahead:

IC50 [3]: 0.0007 µM
Structure (SMILES): COc1cc(O)c(CNc2nc(N[C@@H](CO)C(C)C)nc3c(C(C)C)n[nH]c23)c(O)c1
GI50 [2]: 1.2 µM
GI50 (B16): 2.7 µM

IC50 (DNA synthesis): 0.4 µM
Structure (SMILES): CC(C)c1n[nH]c2c(Nc3ccc(Cl)c(N)c3)nc(NCCCO)nc12

IC50 (DNA synthesis): 0.3 µM
IC50 (cdk1/cyclin B (CDC2)): 0.2 µM
IC50 (IκB-α kinase): 0.4 µM
Structure (SMILES): CC[C@H](CO)Nc1nc(NCc2ccc(Cl)c(N)c2N)c2[nH]nc(C(C)C)c2n1
IC50 [4, 5]: 49 µM
IC50 [4, 6]: 8.3 µM

IC50 (DNA synthesis): 3.7 µM
Structure (SMILES): CC(C)c1n[nH]c2c(NCc3cccc(Cl)c3O)nc(NCCCO)nc12

melting point: 145 to 147 °C
IC50 (cdk1/cyclin B (CDC2)): 0.4 µM
IC50 (IκB-α kinase): 1.2 µM
Structure (SMILES): CC(C)c1n[nH]c2c(NCc3ccccc3)nc(NCCN)nc12 [Example 14, 7-benzylamino-5-(2-aminoethyl)amino-3-isopropylpyrazolo[4,3-d]pyrimidine]
Effect: activation (β-adrenergic receptors): 1.3-fold activation
IC50 [4, 5]: > 50 µM
IC50 [4, 6]: > 50 µM

IC50 [3]: 0.002 µM
Structure (SMILES): CC[C@H](CO)Nc1nc(NCc2cc(O)c(OC)cc2O)c2[nH]nc(C(C)C)c2n1
GI50 [2]: 3.5 µM
GI50 (B16): 5.7 µM
